Results: US20250354195A1, “METHOD OF SCREENING” (UNIVERSITY OF DUNDEE, priority 2024, published 2025)

Biological target: T1, GSK3β (Homo sapiens, UniProt P49841+Q96SW2)
T1 construct: genetically engineered using CRISPR/Cas9 technology to endogenously tag GSK3p protein with HiBiT tag at the C-terminus; host or cells: HEK293 cells, CRISPR/Cas9 knock-in of HiBiT at the endogenous GSK3B locus
Test: High throughput screening for GSK3β-HiBiT targeted degradation (Nano-Glo HiBiT Lytic luminescence)
Assay type: cell-based
Conditions: HEK293 cells with endogenously HiBiT-tagged GSK3β, 24 h incubation, products of one-pot plate array (FIG. 1, Method A); for DC50: 0.01-30 μM, read-out: DC50 (half-maximal degradation concentration)
Experimental: High throughput Screening for GSK3 β-HiBiTL: Test compounds were transferred into Echo plate (Beckman, 001-12782, Echo LDV384) using BRAVO automated liquid handling platform which serves as source plate (10 mM stocks in DMSO). Serial dilutions of the compounds were done using Echo550 liquid handler as 30 μM, 10 μM, 3 μM, 1 μM, 0.3 μM, 0.1 μM, 0.03 μM and 0.01 μM in final concentrations in assay plates. One column of each assay plate was reserved for DMSO control treatments. After compounds were serially diluted in assay plates, HEK293 cells (CRL-1573, ATCC) genetically engineered using CRISPR/Cas9 technology to endogenously tag GSK3p protein with HiBiT tag at the C-terminus (Schwinn et al., 2018, CRISPR-mediated tagging of endogenous proteins with a luminescent peptide, ACS Chem. Biol., 13(2), 467-74) were seeded at a density of 5000 cells/well in 50 μL complete media in 384-well TC-grade white plates (Perkin Elmer, Culturplate, 6007619) with the help of Multidrop Combi liquid dispenser and cells were incubated for 24 h with compounds at 37° C. in humidified incubators with 5% CO2. At the end of the treatment, equal volume of Nano-Glo HiBiT Lytic reagent (Promega N3030) supplied with Nano-Glo HiBiT Lytic substrate and LgBiT Protein were added into each well according to manufacturer's instructions, and cells were incubated on an orbital shaker for 15 seconds and for a further 15 minutes at room temperature. Luminescence signals were measured in an appropriate plate reader (PHERAstar FSX, BMG Labtech) (Dixon et al., 2016, NanoLuc complementation reporter optimized for accurate measurement of protein interactions in cells, ACS Chem. Biol., 11, 400-8). Changes in protein abundance upon compound treatment were further analysed by normalising raw luminescence values to DMSO values and fold changes were plotted using for parameter logistic regression with GraphPad Prism (10.1.2).
Furthermore, the present investigators have shown that bifunctional compounds manufactured using the method of the present disclosure may be effective in the uses of bifunctional compounds, for example as PROTACs in targeted protein degradation (TPD). […] GSK3p was targeted for degradation using a binder for GSK3p, and a binder for CRBN; the binders were comprised in molecules comprising moieties for reacting with the orthogonally reactive moieties of the linker. […] The “identifier” identifies the well of the multi-well plate that has been sampled, e.g., AHD2B-1-A1 relates to the top left well in FIG. 1. The DC50 provides an indication of the potency of the bifunctional compound in targeted degradation; Dmax provides an indication of the maximum possible degradation. The use of these metrics is further described in Flexible Fitting of PROTAC Concentration-Response Curves with Changepoint Gaussian Processes, Semenova et al., SLAS Discovery, 2021, 26, 1212-1224.

T1 sequence (P49841 whole entry): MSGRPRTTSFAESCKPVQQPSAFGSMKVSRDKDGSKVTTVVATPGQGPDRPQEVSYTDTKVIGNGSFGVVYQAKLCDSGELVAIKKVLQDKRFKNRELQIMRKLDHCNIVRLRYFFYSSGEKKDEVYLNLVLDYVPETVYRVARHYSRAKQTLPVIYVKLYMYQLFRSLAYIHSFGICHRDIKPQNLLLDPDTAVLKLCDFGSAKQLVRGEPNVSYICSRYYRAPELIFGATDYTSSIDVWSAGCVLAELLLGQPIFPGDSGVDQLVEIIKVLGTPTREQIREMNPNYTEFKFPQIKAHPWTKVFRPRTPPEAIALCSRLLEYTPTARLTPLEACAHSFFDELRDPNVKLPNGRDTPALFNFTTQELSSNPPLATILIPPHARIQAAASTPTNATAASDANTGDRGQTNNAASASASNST
T1 sequence (Q96SW2 whole entry): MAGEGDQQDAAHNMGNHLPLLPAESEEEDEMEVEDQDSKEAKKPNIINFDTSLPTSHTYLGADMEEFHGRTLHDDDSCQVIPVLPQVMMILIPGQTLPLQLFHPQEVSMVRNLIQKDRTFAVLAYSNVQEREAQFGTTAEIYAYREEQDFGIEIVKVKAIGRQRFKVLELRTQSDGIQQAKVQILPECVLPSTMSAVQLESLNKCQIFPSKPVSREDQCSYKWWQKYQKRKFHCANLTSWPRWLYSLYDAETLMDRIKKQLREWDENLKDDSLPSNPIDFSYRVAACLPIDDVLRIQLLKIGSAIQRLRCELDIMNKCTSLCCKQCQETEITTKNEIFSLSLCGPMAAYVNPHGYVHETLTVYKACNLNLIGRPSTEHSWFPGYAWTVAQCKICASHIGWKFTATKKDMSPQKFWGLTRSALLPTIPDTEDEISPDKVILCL
T1 sequence (Q16531 whole entry partner): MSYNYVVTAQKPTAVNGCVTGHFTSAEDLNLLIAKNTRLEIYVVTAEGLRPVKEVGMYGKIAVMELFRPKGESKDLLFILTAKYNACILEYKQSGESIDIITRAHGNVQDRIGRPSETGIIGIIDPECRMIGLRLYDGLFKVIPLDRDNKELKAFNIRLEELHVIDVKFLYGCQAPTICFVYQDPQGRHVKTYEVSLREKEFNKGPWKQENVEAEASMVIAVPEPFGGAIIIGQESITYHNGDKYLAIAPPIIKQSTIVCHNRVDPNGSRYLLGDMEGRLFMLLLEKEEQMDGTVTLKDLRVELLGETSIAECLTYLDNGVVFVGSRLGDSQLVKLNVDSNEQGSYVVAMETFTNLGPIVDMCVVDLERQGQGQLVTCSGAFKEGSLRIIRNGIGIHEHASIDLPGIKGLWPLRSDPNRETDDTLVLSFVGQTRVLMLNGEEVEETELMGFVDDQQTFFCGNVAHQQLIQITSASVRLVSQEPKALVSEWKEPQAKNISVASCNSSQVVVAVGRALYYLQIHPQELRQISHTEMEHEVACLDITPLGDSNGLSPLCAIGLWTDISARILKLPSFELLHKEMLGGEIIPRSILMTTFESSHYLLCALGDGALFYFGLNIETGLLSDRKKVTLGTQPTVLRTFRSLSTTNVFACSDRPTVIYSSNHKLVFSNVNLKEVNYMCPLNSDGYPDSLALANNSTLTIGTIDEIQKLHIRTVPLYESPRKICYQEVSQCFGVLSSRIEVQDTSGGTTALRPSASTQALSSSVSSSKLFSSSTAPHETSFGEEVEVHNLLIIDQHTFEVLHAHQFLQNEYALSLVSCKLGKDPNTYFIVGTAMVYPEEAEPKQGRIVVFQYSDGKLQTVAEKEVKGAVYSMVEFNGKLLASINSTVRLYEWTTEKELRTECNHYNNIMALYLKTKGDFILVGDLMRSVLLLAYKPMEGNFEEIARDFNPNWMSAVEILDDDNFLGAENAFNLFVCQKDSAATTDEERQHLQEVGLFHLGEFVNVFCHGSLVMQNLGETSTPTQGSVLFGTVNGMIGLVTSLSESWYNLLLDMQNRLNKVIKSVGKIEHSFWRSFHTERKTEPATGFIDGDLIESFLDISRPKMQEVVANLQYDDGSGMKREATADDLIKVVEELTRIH

Row | Structure (SMILES) | DC50 | Dmax (maximal effect)
1 | COc1ccc(-c2ocnc2C(=O)NCCCn2cc(COCCOCCN3CCN(CC(=O)N[C@H](C(=O)N4C[C@H](O)C[C@H]4C(=O)NCc4ccc(-c5scnc5C)cc4)C(C)(C)C)CC3)nn2)cc1Cl [AHD2B-1-B10] | > 10 µM | <30%
2 | COc1ccc(-c2ocnc2C(=O)NCCCn2cc(-c3cccc(CN4CCN(CC(=O)N[C@H](C(=O)N5C[C@H](O)C[C@H]5C(=O)NCc5ccc(-c6scnc6C)cc5)C(C)(C)C)CC4)n3)nn2)cc1Cl [AHD2B-1-B8] | > 10 µM | <30%
3 | COc1ccc(-c2ocnc2C(=O)NCCCn2cc(-c3ccc(CN4CCN(Cc5ccc6c(N7CCC(=O)NC7=O)nn(C)c6c5)CC4)cn3)nn2)cc1Cl [AHD2B-1-D2] | < 0.25 µM | 63%
4 | COc1ccc(-c2ocnc2C(=O)NCCCn2cc(COC3CCN(Cc4ccc(C(=O)NC5CCC(=O)NC5=O)nc4)CC3)nn2)cc1Cl (centres unmarked) [AHD2B-1-F5] | > 10 µM | <30%
5 | COc1ccc(-c2ocnc2C(=O)NCCCn2cc(CCCCCN3CCN(Cc4ccc(C(=O)NC5CCC(=O)NC5=O)nc4)CC3)nn2)cc1Cl (centres unmarked) [AHD2B-1-F7] | > 10 µM | <30%
6 | COc1ccc(-c2ocnc2C(=O)NCCCn2cc(CCCCCN3CCCN(Cc4ccc(C(=O)NC5CCC(=O)NC5=O)c(F)c4)CC3)nn2)cc1Cl (centres unmarked) [AHD2B-1-C9] | 7.1 µM | 39%
7 | COc1ccc(-c2ocnc2C(=O)NCCCn2cc(COc3ccc(CN4CCN(Cc5ccc(C(=O)NC6CCC(=O)NC6=O)nc5)CC4)cc3)nn2)cc1Cl (centres unmarked) [AHD2B-1-F3] | > 10 µM | <30%
8 | COc1ccc(-c2ocnc2C(=O)NCCCn2cc(COc3ccc(CN4CC5(C4)CN(Cc4ccc(C(=O)NC6CCC(=O)NC6=O)c(F)c4)C5)cc3)nn2)cc1Cl (centres unmarked) [AHD2B-1-C11] | 1.9 µM | 56%
9 | COc1ccc(-c2ocnc2C(=O)NCCCn2cc(COC3CCN(Cc4cccc(N5CCC(=O)NC5=O)c4)CC3)nn2)cc1Cl [AHD2B-1-A5] | > 10 µM | <30%
10 | COc1ccc(-c2ocnc2C(=O)NCCCn2cc(COc3ccc(CN4CCN(Cc5ccc(N6CCC(=O)NC6=O)cc5)CC4)cc3)nn2)cc1Cl [AHD2B-1-G3] | > 10 µM | <30%
11 | COc1ccc(-c2ocnc2C(=O)NCCCn2cc(COc3ccc(CN4CCC5(C4)CN(Cc4cccc(N6CCC(=O)NC6=O)c4)C5)cc3)nn2)cc1Cl [AHD2B-1-A6] | > 10 µM | <30%
12 | COc1ccc(-c2ocnc2C(=O)NCCCn2cc(COc3ccc(CN4CC5(C4)CN(Cc4cccc(N6CCC(=O)NC6=O)c4)C5)cc3)nn2)cc1Cl [AHD2B-1-A11] | > 10 µM | <30%
13 | COc1ccc(-c2ocnc2C(=O)NCCCn2cc(CCCCCN3CCCN(Cc4ccc(C(=O)NC5CCC(=O)NC5=O)nc4)CC3)nn2)cc1Cl (centres unmarked) [AHD2B-1-F9] | > 10 µM | <30%
14 | COc1ccc(-c2ocnc2C(=O)NCCCn2cc(-c3cccc(CN4CCN(Cc5cccc(N6CCC(=O)NC6=O)c5)CC4)n3)nn2)cc1Cl [AHD2B-1-A8] | > 10 µM | <30%
15 | COc1ccc(-c2ocnc2C(=O)NCCCn2cc(CCCN3CCN(CC(=O)N[C@H](C(=O)N4C[C@H](O)C[C@H]4C(=O)NCc4ccc(-c5scnc5C)cc4)C(C)(C)C)CC3)nn2)cc1Cl [AHD2B-1-B12] | > 10 µM | <30%
16 | COc1ccc(-c2ocnc2C(=O)NCCCn2cc(CCCCN3CCN(Cc4cccc(N5CCC(=O)NC5=O)c4)CC3)nn2)cc1Cl [AHD2B-1-A1] | > 10 µM | <30%
17 | COc1ccc(-c2ocnc2C(=O)NCCCn2cc(COc3ccc(CN4CCC5(C4)CN(Cc4ccc(N6CCC(=O)NC6=O)cc4)C5)cc3)nn2)cc1Cl [AHD2B-1-G6] | > 10 µM | <30%
18 | COc1ccc(-c2ocnc2C(=O)NCCCn2cc(CCCN3CCN(Cc4ccc(C(=O)NC5CCC(=O)NC5=O)c(F)c4)CC3)nn2)cc1Cl (centres unmarked) [AHD2B-1-C12] | > 10 µM | <30%
19 | COc1ccc(-c2ocnc2C(=O)NCCCn2cc(-c3ccc(CN4CCN(Cc5ccc(C(=O)NC6CCC(=O)NC6=O)nc5)CC4)cn3)nn2)cc1Cl (centres unmarked) [AHD2B-1-F2] | > 10 µM | <30%
20 | COc1ccc(-c2ocnc2C(=O)NCCCn2cc(CCCOc3ccc(CN4CCN(Cc5ccc(N6CCC(=O)NC6=O)cc5)CC4)cc3)nn2)cc1Cl [AHD2B-1-G4] | > 10 µM | <30%
21 | COc1ccc(-c2ocnc2C(=O)NCCCn2cc(COC3CCN(Cc4ccc(N5CCC(=O)NC5=O)cc4)CC3)nn2)cc1Cl [AHD2B-1-G5] | > 10 µM | <30%
22 | COc1ccc(-c2ocnc2C(=O)NCCCn2cc(CCCCCN3CCCN(Cc4cccc(N5CCC(=O)NC5=O)c4)CC3)nn2)cc1Cl [AHD2B-1-A9] | > 10 µM | <30%
